From PubChem BioAssay (NCI)
“And” between values parts separate entries of the source, which are not always exact repeats. Equal entries are not always repeated.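 The compound was tested at five concentrations on cells cultured in 96-well plates, with a 48-hour exposure period. GI50: concentration for 50% inhibition of growth. TGI: total growth inhibition.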

Legend:
Experiment in all cases: inhibition of tumour cell growth, NCI panel, 48 h
[1] = test system: RPMI-8226 leukemia
[2] = test system: NCI-H23 lung
[3] = test system: HT29 colon
[4] = test system: MDA-N
[5] = test system: HCT-116 colon
[6] = test system: SK-OV-3 ovarian
[7] = test system: OVCAR-3 ovarian
[8] = test system: KM12 colon
[9] = test system: SF-295 CNS
[10] = test system: EKVX NSCLC

Structure (SMILES)	TGI [1]	TGI [2]	TGI [3]	TGI [4]	TGI [5]	TGI [6]	TGI [7]	TGI [8]	TGI [9]	TGI [10]	GI50 [1]	GI50 [2]	GI50 [6]	GI50 [7]
Cc1cc(C)c(/C=C(\C(=C/c2c(C)cc(C)cc2C)[N+](=O)[O-])[N+](=O)[O-])c(C)c1	70.9 µM	> 100 µM	> 100 µM	> 100 µM	> 100 µM	> 100 µM	> 100 µM	> 100 µM	> 100 µM	> 100 µM	–	–	–	–
CC1(C)CC(C#Cc2ccccc2)CC(C)(C)N1O	69.1 µM	35.2 µM	29.4 µM	29.9 µM	43.5 µM	> 100 µM	37.4 µM	36.1 µM	35.1 µM	> 100 µM	–	–	–	–
O=[N+]([O-])c1cc(Cl)ccc1Sc1ccccc1	> 100 µM	> 100 µM	> 100 µM	> 100 µM	> 100 µM	> 100 µM	> 100 µM	> 100 µM	> 100 µM	> 100 µM	–	–	–	–
COc1cccc2c1OCC1Cc3ccccc3OC21 (centres undefined)	> 100 µM	> 100 µM	> 100 µM	64.8 µM	> 100 µM	> 100 µM	88.8 µM	> 100 µM	> 100 µM	> 100 µM	–	–	–	–
COc1nc2c(N3CCCC3)nc(N3CCNCC3)nc2nc1NCc1ccccc1	3.96 µM	5.88 µM	4.65 µM	2.45 µM	2.63 µM	4.68 µM	2.42 µM	4.68 µM	3.35 µM	10.8 µM	–	–	–	–
COc1ccc2c(c1)c(=O)c1c(NCCNCCO)ccc3c(=O)n(CCN(C)C)c(=O)n2c31	1.15 µM	0.271 µM	0.425 µM	0.279 µM	0.348 µM	2.71 µM	4.62 µM	0.831 µM	1.84 µM	0.819 µM	–	–	–	–
C[C@H]1[C@H](C)CC[C@]2(C(=O)OC3OC(CO)C(O)C(O)C3O)CC[C@]3(C)C(=CC[C@@H]4[C@@]5(C)C[C@H]6OC(=O)c7cc(O)c(O)c(O)c7-c7c(cc(O)c(O)c7O)C(=O)O[C@@H]6C(CO)(CO)[C@@H]5CC[C@]43C)[C@H]12 (some centres undefined)	> 100 µM	> 100 µM	> 56 µM	72.7 µM	> 100 µM	> 100 µM	> 71.5 µM	> 100 µM	> 100 µM	> 100 µM	–	–	–	–
COc1ccc(OC)c2sc(N3C(=O)/C(=C/c4cccc([N+](=O)[O-])c4)N=C3c3ccccc3)nc12	61.2 µM	> 100 µM	> 100 µM	> 100 µM	> 100 µM	> 100 µM	> 100 µM	> 100 µM	> 100 µM	> 100 µM	–	–	–	–
O=C(OCC1OC(n2nc(Cn3nnc(-c4cccnc4)n3)n(-c3cccc4ccccc34)c2=S)C(OC(=O)c2ccccc2)C1OC(=O)c1ccccc1)c1ccccc1 (centres undefined)	> 100 µM	> 100 µM	> 100 µM	> 100 µM	> 100 µM	> 100 µM	> 100 µM	> 100 µM	> 100 µM	> 100 µM	–	–	–	–
CC(C)/C(Cl)=N/OC(=O)Nc1ccc(OC(F)(F)F)cc1	8.97 µM	30.9 µM	35.9 µM	26.2 µM	18 µM	31.9 µM	32.6 µM	30.3 µM	33.1 µM	22.9 µM	–	–	–	–
CCOC(=O)c1ccc(Nc2nc3ccc(C(F)(F)F)cc3nc2C(=O)OCC)cc1	> 100 µM	> 100 µM	> 100 µM	> 100 µM	> 100 µM	> 100 µM	> 100 µM	> 100 µM	> 100 µM	> 100 µM	–	–	–	–
c1ccc(C2CC(=NC3CCCCC3)Nc3ccccc3N2)cc1 (centres undefined)	> 100 µM	> 100 µM	> 100 µM	> 100 µM	> 100 µM	> 100 µM	> 100 µM	> 100 µM	> 100 µM	> 100 µM	–	–	–	–
CN(C)CCCNC(=O)c1c(O)c2ccccc2n(C)c1=O	> 100 µM	> 100 µM	> 100 µM	> 100 µM	> 100 µM	> 100 µM	> 100 µM	> 100 µM	> 100 µM	> 100 µM	–	–	–	–
O=C1C(C(O)(C(F)(F)F)C(F)(F)F)CCC1C(O)(C(F)(F)F)C(F)(F)F (centres undefined)	13.5 µM	6.75 µM	> 29.3 µM	> 81.8 µM	13.1 µM	> 100 µM	> 100 µM	37.3 µM	21 µM	> 100 µM	–	–	–	–
Cc1cc(NS(=O)(=O)c2ccc(NC(NC(=O)C(C(F)(F)F)C(F)(F)F)(C(F)(F)F)C(F)(F)F)cc2)no1	> 100 µM	> 100 µM	> 100 µM	> 100 µM	> 100 µM	> 100 µM	> 100 µM	> 100 µM	> 100 µM	> 100 µM	–	–	–	–
Cc1c(-c2ccccc2)[nH]n(C2=NCCN2)c1=O	> 100 µM	> 100 µM	> 100 µM	> 100 µM	> 100 µM	> 100 µM	> 100 µM	> 100 µM	> 100 µM	> 100 µM	–	–	–	–
O=C(CC(C(=O)c1ccco1)c1ccco1)c1ccco1 (centres undefined)	> 100 µM	> 100 µM	> 100 µM	> 100 µM	> 100 µM	> 100 µM	> 100 µM	> 100 µM	> 100 µM	> 100 µM	–	–	–	–

Structure (SMILES)	TGI [1]	TGI [2]	TGI [3]	TGI [4]	TGI [5]	TGI [6]	TGI [7]	TGI [8]	TGI [9]	TGI [10]	GI50 [1]	GI50 [2]	GI50 [6]	GI50 [7]
Cc1cc(O)c(-c2cc(O)c(C)cc2O)cc1O	4.07 µM	38.9 µM	> 53.1 µM	22.9 µM	21.7 µM	30.5 µM	5.12 µM	27.5 µM	31.2 µM	28.7 µM	–	–	–	–
C=CCN1C(=O)/C(=C/c2ccc(C)cc2)N=C1SC1OC(COC(C)=O)C(OC(C)=O)C(OC(C)=O)C1OC(C)=O (centres undefined)	> 100 µM	> 100 µM	> 100 µM	> 100 µM	> 100 µM	> 100 µM and 85.4 µM	> 100 µM	> 100 µM and 17.9 µM	> 100 µM	> 100 µM	> 100 µM and 20.2 µM	> 100 µM and 27.1 µM	> 100 µM and 28.9 µM	> 100 µM and 29.4 µM
O=C1c2cccc(O)c2C(=O)c2c(OC3OC(CO)C(O)C(O)C3O)cccc21 (centres undefined)	> 100 µM	31.6 µM	> 100 µM	> 100 µM	51 µM	> 100 µM	> 100 µM	> 100 µM	> 100 µM	> 100 µM	–	–	–	–
COc1cc(C(O)c2ccc3c(c2)OCO3)cc(OC)c1OC (centres undefined)	> 100 µM	> 100 µM	> 100 µM	> 100 µM	> 100 µM	> 100 µM	> 100 µM	> 100 µM	> 100 µM	> 100 µM	–	–	–	–
COc1ccc(Oc2cnn(C(Br)(Br)C(C)=O)c(=O)c2Br)cc1	11.8 µM	39 µM	48.4 µM	22.9 µM	19.2 µM	> 64.3 µM	13.6 µM	31.4 µM	51.6 µM	36.1 µM	–	–	–	–
c1ccc([P+](CCCCCCCC[P+](c2ccccc2)(c2ccccc2)c2ccccc2)(c2ccccc2)c2ccccc2)cc1	23.8 µM	> 52.8 µM	> 50 µM	> 100 µM	> 100 µM	> 100 µM	> 100 µM	49.5 µM	> 72.9 µM	> 100 µM	–	–	–	–
C[C@]12CC[C@@H]3c4ccc(O)cc4CC[C@H]3[C@@H]1C/C(=C\c1ccc(C#N)cc1)C2=O	> 100 µM	> 100 µM	75.2 µM	> 100 µM	> 100 µM	> 100 µM	> 100 µM	> 100 µM	> 100 µM	> 100 µM	–	–	–	–
CCNc1ncnc2sc(SCc3ccccc3)nc12	> 100 µM	> 100 µM	> 100 µM	> 100 µM	> 100 µM	> 100 µM	> 100 µM	> 100 µM	> 100 µM	> 100 µM	–	–	–	–
CC(C)C1=C(O)C2=C(C(=O)C1=O)C1(C)CCCC(C)(C)C1C(O)C2OC=O (centres undefined)	6.9 µM	20.5 µM	23.2 µM	28.1 µM	20.3 µM	27.1 µM	25.9 µM	24.7 µM	29.3 µM	21.7 µM	–	–	–	–
CC(C)=CCC[C@@H](C)C1=C(O)C(N)=C(C)C(=O)C1=O	98.6 µM	> 100 µM	> 100 µM	> 100 µM	> 100 µM	> 100 µM	> 100 µM	> 100 µM	> 72.3 µM	> 100 µM	–	–	–	–
CON(C)C(=O)C1CCCO1 (centres undefined)	> 100 µM	> 100 µM	> 100 µM	> 100 µM	> 100 µM	> 100 µM	> 100 µM	> 100 µM	> 100 µM	> 100 µM	–	–	–	–
O=C(/C=C/c1ccc2c(c1)OCO2)Cc1nc2ccccc2[nH]c1=O	> 100 µM	> 100 µM	> 100 µM	> 100 µM	> 100 µM	33.5 µM	81.5 µM	> 100 µM	52.7 µM	> 100 µM	–	–	–	–
O=C1C=CC(=O)C(CNc2ccc(C(=O)OCc3ccccc3)cc2)=C1	> 21 µM	30.1 µM	31.8 µM	19.5 µM	18.2 µM	30.8 µM	7.23 µM	23.4 µM	34.5 µM	23.7 µM	–	–	–	–
O=[N+]([O-])c1cccc2c(N=Nc3ccc4ccccc4c3O)c(O)cc(S(=O)(=O)O)c12	> 100 µM	> 100 µM	> 100 µM	> 100 µM	> 100 µM	> 100 µM	> 100 µM	> 100 µM	> 100 µM	> 100 µM	–	–	–	–
COc1cc2[nH]c(-c3ccccc3)cc(=O)c2c(OC)c1OC	> 100 µM	> 100 µM	> 100 µM	> 100 µM	> 100 µM	> 100 µM	> 100 µM	> 100 µM	> 100 µM	> 100 µM	–	–	–	–
CCN1C(=O)C(=C/C=C/c2ccc(N(CC)CC)cc2)C(=O)N(CC)C1=S	> 100 µM	> 100 µM	> 100 µM	> 100 µM	> 100 µM	> 100 µM	54.9 µM	> 100 µM	> 100 µM	> 100 µM	–	–	–	–
CC#CC(O)(C(=O)OC1CC(C)N(C)C(C)(C)C1)C1CCCC1 (centres undefined)	> 100 µM	> 100 µM	> 100 µM	> 100 µM	> 100 µM	> 100 µM	> 100 µM	> 100 µM	> 100 µM	> 100 µM	–	–	–	–
